Source: PubChem BioAssay (NCI)
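96-well plates; 48 h exposure; 5 concentrations. Endpoints by linear interpolation between flanking doses. Not reached: highest tested concentration assigned. GI50 marks 50% less growth. TGI denotes the concentration required for complete inhibition of growth.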

Tests used:
Assay in all cases: NCI-60 cell line screen, 48 h
NCI-H23 lung = system: NCI-H23 lung
NCI/ADR-RES ovarian = system: NCI/ADR-RES ovarian
MCF7 breast = system: MCF7 breast
RXF 393 renal = system: RXF 393 renal
MDA-MB-435 = system: MDA-MB-435
BT-549 breast = system: BT-549 breast
CCRF-CEM leukemia = system: CCRF-CEM leukemia
HL-60(TB) leukemia = system: HL-60(TB) leukemia
KM12 colon = system: KM12 colon
UO-31 renal = system: UO-31 renal
SR leukemia = system: SR leukemia
OVCAR-3 ovarian = system: OVCAR-3 ovarian
K-562 leukemia = system: K-562 leukemia
PC-3 prostate = system: PC-3 prostate
RPMI-8226 leukemia = system: RPMI-8226 leukemia
HOP-62 NSCLC = system: HOP-62 NSCLC
IGROV1 ovarian = system: IGROV1 ovarian
SK-MEL-2 melanoma = system: SK-MEL-2 melanoma
T-47D breast = system: T-47D breast
SK-MEL-28 melanoma = system: SK-MEL-28 melanoma
MALME-3M melanoma = system: MALME-3M melanoma
SF-268 CNS = system: SF-268 CNS
UACC-62 melanoma = system: UACC-62 melanoma
MOLT-4 leukemia = system: MOLT-4 leukemia
MDA-MB-231 breast = system: MDA-MB-231 breast
DU-145 prostate = system: DU-145 prostate
CAKI-1 renal = system: CAKI-1 renal
HCC-2998 colon = system: HCC-2998 colon
HCT-15 colon = system: HCT-15 colon
A498 renal = system: A498 renal
HT29 colon = system: HT29 colon
OVCAR-5 ovarian = system: OVCAR-5 ovarian
ACHN renal = system: ACHN renal
HCT-116 colon = system: HCT-116 colon
U251 CNS = system: U251 CNS
SF-295 CNS = system: SF-295 CNS
COLO 205 colon = system: COLO 205 colon
UACC-257 melanoma = system: UACC-257 melanoma
HS 578T breast = system: HS 578T breast
SW-620 colon = system: SW-620 colon
SK-MEL-5 melanoma = system: SK-MEL-5 melanoma
A549 NSCLC = system: A549 NSCLC
SNB-19 CNS = system: SNB-19 CNS
LOX IMVI melanoma = system: LOX IMVI melanoma
M14 melanoma = system: M14 melanoma
EKVX NSCLC = system: EKVX NSCLC
SNB-75 CNS = system: SNB-75 CNS
SF-539 CNS = system: SF-539 CNS
TK-10 renal = system: TK-10 renal
NCI-H460 lung = system: NCI-H460 lung
NCI-H226 lung = system: NCI-H226 lung
OVCAR-4 ovarian = system: OVCAR-4 ovarian
OVCAR-8 ovarian = system: OVCAR-8 ovarian
HOP-92 NSCLC = system: HOP-92 NSCLC
786-0 renal = system: 786-0 renal
SK-OV-3 ovarian = system: SK-OV-3 ovarian
NCI-H522 lung = system: NCI-H522 lung
SN12C renal = system: SN12C renal

In the case of `C[n+]1cn(-c2ccc([N+](=O)[O-])cn2)c2ccccc21`, the TGI (NCI-H23 lung) is reported as > 100 µM, the TGI (NCI/ADR-RES ovarian) is reported as > 100 µM and the TGI (MCF7 breast) is reported as > 100 µM. For the same compound, the TGI (RXF 393 renal) was > 100 µM, the TGI (MDA-MB-435) was > 100 µM and the TGI (BT-549 breast) was > 100 µM. The TGI (CCRF-CEM leukemia) was > 100 µM, the TGI (HL-60(TB) leukemia) was > 100 µM and the TGI (KM12 colon) was > 100 µM. For the same compound, the TGI (UO-31 renal) was > 100 µM, the TGI (SR leukemia) was > 100 µM and the TGI (OVCAR-3 ovarian) was > 100 µM. For the same compound, the TGI (K-562 leukemia) was > 100 µM, the TGI (PC-3 prostate) was > 100 µM and the TGI (RPMI-8226 leukemia) was > 100 µM. The TGI (HOP-62 NSCLC) was > 100 µM, the TGI (IGROV1 ovarian) was > 100 µM and the TGI (SK-MEL-2 melanoma) was > 100 µM. For the same compound, the TGI (T-47D breast) was > 100 µM, the TGI (SK-MEL-28 melanoma) was > 100 µM and the TGI (MALME-3M melanoma) was > 100 µM. The TGI (SF-268 CNS) was > 100 µM, the TGI (UACC-62 melanoma) was > 100 µM and the TGI (MOLT-4 leukemia) was > 100 µM. For the same compound, the TGI (MDA-MB-231 breast) was > 100 µM, the TGI (DU-145 prostate) was > 100 µM and the TGI (CAKI-1 renal) was > 100 µM. The TGI (HCC-2998 colon) was > 100 µM, the TGI (HCT-15 colon) was > 100 µM and the TGI (A498 renal) was > 100 µM. For the same compound, the TGI (HT29 colon) was > 100 µM, the TGI (OVCAR-5 ovarian) was > 100 µM and the TGI (ACHN renal) was > 100 µM. For the same compound, the TGI (HCT-116 colon) was > 100 µM, the TGI (U251 CNS) was > 100 µM and the TGI (SF-295 CNS) was > 100 µM. For the same compound, the TGI (COLO 205 colon) was > 100 µM, the TGI (UACC-257 melanoma) was > 100 µM and the TGI (HS 578T breast) was > 100 µM. For the same compound, the TGI (SW-620 colon) was > 100 µM, the TGI (SK-MEL-5 melanoma) was > 100 µM and the TGI (A549 NSCLC) was > 100 µM. For the same compound, the TGI (SNB-19 CNS) was > 100 µM, the TGI (LOX IMVI melanoma) was > 100 µM and the TGI (M14 melanoma) was > 100 µM. The TGI (EKVX NSCLC) was > 100 µM, the TGI (SNB-75 CNS) was > 100 µM and the TGI (SF-539 CNS) was > 100 µM. For the same compound, the TGI (TK-10 renal) was > 100 µM, the TGI (NCI-H460 lung) was > 100 µM and the TGI (NCI-H226 lung) was > 100 µM. The TGI (OVCAR-4 ovarian) was > 100 µM, the TGI (OVCAR-8 ovarian) was > 100 µM and the TGI (HOP-92 NSCLC) was > 100 µM. The TGI (786-0 renal) was > 100 µM and the TGI (SK-OV-3 ovarian) was > 100 µM.
`Cc1ccc(S(=O)(=O)Oc2ccccc2-c2ccccc2)cc1` was tested, and the GI50 (NCI-H23 lung) was 5.21 µM, the TGI (NCI-H23 lung) was > 100 µM and the GI50 (NCI/ADR-RES ovarian) was 1.13 µM. For the same compound, the TGI (NCI/ADR-RES ovarian) was > 28.9 µM, the GI50 (MCF7 breast) was 2.47 µM and the TGI (MCF7 breast) was > 100 µM. For the same compound, the GI50 (RXF 393 renal) was 2.31 µM, the TGI (RXF 393 renal) was > 27.7 µM and the GI50 (MDA-MB-435) was 0.249 µM. For the same compound, the TGI (MDA-MB-435) was 0.834 µM, the GI50 (NCI-H522 lung) was 0.542 µM and the TGI (NCI-H522 lung) was 7.83 µM. For the same compound, the GI50 (BT-549 breast) was 8.41 µM, the TGI (BT-549 breast) was > 100 µM and the GI50 (CCRF-CEM leukemia) was 2.48 µM. For the same compound, the TGI (CCRF-CEM leukemia) was > 100 µM, the GI50 (HL-60(TB) leukemia) was 2.12 µM and the TGI (HL-60(TB) leukemia) was > 100 µM. The GI50 (KM12 colon) was 0.743 µM, the TGI (KM12 colon) was > 100 µM and the GI50 (UO-31 renal) was 4.01 µM. For the same compound, the TGI (UO-31 renal) was > 75.7 µM, the GI50 (SR leukemia) was 0.465 µM and the TGI (SR leukemia) was > 70.7 µM. The GI50 (OVCAR-3 ovarian) was 1.81 µM, the TGI (OVCAR-3 ovarian) was 6.94 µM and the GI50 (K-562 leukemia) was 0.524 µM. The TGI (K-562 leukemia) was > 100 µM, the GI50 (PC-3 prostate) was 3.52 µM and the TGI (PC-3 prostate) was > 100 µM. The GI50 (RPMI-8226 leukemia) was 3.42 µM, the TGI (RPMI-8226 leukemia) was > 55.6 µM and the GI50 (HOP-62 NSCLC) was 4.24 µM. The TGI (HOP-62 NSCLC) was > 100 µM, the GI50 (IGROV1 ovarian) was 2.16 µM and the TGI (IGROV1 ovarian) was > 100 µM. For the same compound, the GI50 (SK-MEL-2 melanoma) was 6.55 µM, the TGI (SK-MEL-2 melanoma) was > 26.1 µM and the GI50 (T-47D breast) was 5.14 µM. For the same compound, the TGI (T-47D breast) was > 100 µM, the GI50 (SK-MEL-28 melanoma) was 7.77 µM and the TGI (SK-MEL-28 melanoma) was > 100 µM. For the same compound, the GI50 (SF-268 CNS) was 5.95 µM, the TGI (SF-268 CNS) was > 100 µM and the GI50 (UACC-62 melanoma) was 2.3 µM. The TGI (UACC-62 melanoma) was > 100 µM, the GI50 (MOLT-4 leukemia) was 3.9 µM and the TGI (MOLT-4 leukemia) was > 100 µM. For the same compound, the GI50 (MDA-MB-231 breast) was 3.7 µM, the TGI (MDA-MB-231 breast) was > 100 µM and the GI50 (DU-145 prostate) was 2.87 µM. For the same compound, the TGI (DU-145 prostate) was > 29.8 µM, the GI50 (CAKI-1 renal) was 1.3 µM and the TGI (CAKI-1 renal) was > 25.5 µM. The GI50 (HCC-2998 colon) was 3.87 µM, the TGI (HCC-2998 colon) was > 72.7 µM and the GI50 (HCT-15 colon) was 1.62 µM. For the same compound, the TGI (HCT-15 colon) was > 100 µM, the GI50 (A498 renal) was 1.42 µM and the TGI (A498 renal) was 8.94 µM. The GI50 (HT29 colon) was 1.18 µM, the TGI (HT29 colon) was > 43.2 µM and the GI50 (OVCAR-5 ovarian) was 8.26 µM. The TGI (OVCAR-5 ovarian) was > 100 µM, the GI50 (ACHN renal) was 6.81 µM and the TGI (ACHN renal) was > 100 µM. The GI50 (HCT-116 colon) was 2.85 µM, the TGI (HCT-116 colon) was > 100 µM and the GI50 (U251 CNS) was 3.81 µM. The TGI (U251 CNS) was > 100 µM, the GI50 (SF-295 CNS) was 0.702 µM and the TGI (SF-295 CNS) was 3.3 µM. The GI50 (COLO 205 colon) was 2.25 µM, the TGI (COLO 205 colon) was 8.41 µM and the GI50 (UACC-257 melanoma) was 4.35 µM. For the same compound, the TGI (UACC-257 melanoma) was > 100 µM, the GI50 (HS 578T breast) was 3.09 µM and the TGI (HS 578T breast) was > 26.9 µM. For the same compound, the GI50 (SW-620 colon) was 1.03 µM, the TGI (SW-620 colon) was > 100 µM and the GI50 (SK-MEL-5 melanoma) was 2.98 µM. The TGI (SK-MEL-5 melanoma) was > 100 µM, the GI50 (A549 NSCLC) was 4.4 µM and the TGI (A549 NSCLC) was > 100 µM. The GI50 (SNB-19 CNS) was 5.24 µM, the TGI (SNB-19 CNS) was > 100 µM and the GI50 (LOX IMVI melanoma) was 4.22 µM. The TGI (LOX IMVI melanoma) was > 100 µM, the GI50 (M14 melanoma) was 2.05 µM and the TGI (M14 melanoma) was > 86.1 µM. The GI50 (EKVX NSCLC) was 3.21 µM, the TGI (EKVX NSCLC) was > 100 µM and the GI50 (SNB-75 CNS) was 2.63 µM. The TGI (SNB-75 CNS) was > 29 µM, the GI50 (SF-539 CNS) was 2.38 µM and the TGI (SF-539 CNS) was 8.1 µM. The GI50 (TK-10 renal) was 12 µM, the TGI (TK-10 renal) was > 100 µM and the GI50 (SN12C renal) was 6.18 µM. The TGI (SN12C renal) was > 100 µM, the GI50 (NCI-H460 lung) was 2.32 µM and the TGI (NCI-H460 lung) was > 100 µM. For the same compound, the GI50 (NCI-H226 lung) was 21.2 µM, the TGI (NCI-H226 lung) was > 100 µM and the GI50 (OVCAR-4 ovarian) was 7.13 µM. The TGI (OVCAR-4 ovarian) was > 100 µM, the GI50 (OVCAR-8 ovarian) was 4.86 µM and the TGI (OVCAR-8 ovarian) was > 100 µM. For the same compound, the GI50 (HOP-92 NSCLC) was 5.73 µM, the TGI (HOP-92 NSCLC) was > 100 µM and the GI50 (786-0 renal) was 8.26 µM. For the same compound, the TGI (786-0 renal) was > 100 µM, the GI50 (SK-OV-3 ovarian) was 3.24 µM and the TGI (SK-OV-3 ovarian) was > 45.8 µM.
